Assay results as given in patent publication EP0002051A1, “Use of butoxybenzylhyoscyamine bromide in pharmaceutical compositions against deafness and tinnitus” (Eisai Co., Ltd., priority 1977, dated 1979).

What was measured:
[1] = system: male and female rats; test: chronic toxicity, continuous administration for 25 weeks; type: in vivo
Protocol: Toxicity of butoxybenzylhyoscyamine bromide in detail: • (A) The acute toxicity, LDSo(mg/kg), is as shown in table 1 [formula] • (B) The compound was administered in an amount of 3.2, 8.0 or 2o mg/kg per day to male and female rats conti- nously during 25 weeks to determine the chronic toxicity.

[2] = system: hearing power; test: clinical test: change of hearing power after administration (case histories, audiograms); type: in vivo, patients
Protocol: (§1) Among patients who came into the hospital during the period of from September 1976 to September 1977 while complaining of deafness or tinnitus, those meeting the following conditions were chosen.
(§2) In principle, a mixture of 4 mg of butoxybenzylhyoscyamine bromide with 2o % glucose was intravenously injected at first, and then, two capsules, each containing 5 mg of butoxybenzylhyoscyamine bromide, was administered 3-times per day (namely, 6 capsules being administered as a whole per day). The administration of capsules was conducted for one week.
(§3) • (a) The standard autiometry (125 - 8ooo Hz, air and bone condition) was carried out before the injection. • (b) The same test was conducted 3o minutes after the injection. In patients complaining of tinnitus, the change of the degree of tinnitus was examined. • (c) The audiometry was carried out on the 7th day from the start of the oral administration. If the patients felt changes of hearing power or tinnitus during this period, the audiometry was appropriately conducted. • (d) During the oral administraion period of 7 days, desease conditions such as (1) hearing power (2) tinnitus, (3) other ear symptoms and (4) side effects were recorded in examination cards.
(§4) • 1. Change of hearing power just after injection (3o minutes: • With respect to 5o patients, the audiometry was carried out just after the intravenous injection of butoxybenzylhyoscyamine bromide (3o minutes after the injection) to obtain results shown in table 2. Sounds of 25o Hz, 1000 Hz and 8000 Hz were chosen as typical instances of sounds of the low-tone, medium-tone and high-tone regions, respectively, and changes of the hearing power to these sounds were examined. The change within a range of + 5 dB was judged as "no change" and the change exceeding 5 dB was judged as "improvement" or "worsening". [formula] As will be apparent from the results shown in table 2, the highest improvement was 2o dB (1ooo Hz) but in many cases, the improvement was up to 15 dB. The improvement was higher in the order of the low-tone region (18%), the high-tone region (12 %) and the mediom-tone region (8%) and the average improvement of the hearing power after the intravenous injection was about 13 %. • 2. Improvement of Tinnitus: With respect to 41 patients complaining of tinnitus, the change of degree of tinnitus was examined after one week's oral administration to obtain results shown belof in table 3. [formula] As will be apparent from the results shown in table 3, the agent was effective in 15 patients (36%), though the agent of the present invention was ineffective in 24 patients (59%) or the agent worsened the state in 2 patients (5%). • 3. Change of hearing power after administration: Changes of the hearing power were examined during a period of 1 year and three months at longest after one week's administration. With respect to cases where high improving effects were attained, the clinical history will be described.

[3] = system: hearing power; test: clinical test: audiometry just after intravenous injection (30 minutes); type: in vivo; conditions: 5o patients
Protocol: as §1
(§5) Butoxybenzylhyoscyamine bromide was administered to 74 patients meeting the above conditions.
as §2, §3, §4

[4] = system: tinnitus; test: clinical test: change of degree of tinnitus after one week's oral administration; type: in vivo; conditions: 41 patients complaining of tinnitus
Protocol: as §1, §5, §2, §3, §4

[5] = rats, 3.2, 8.0 or 2o mg/kg per day

CCCCOc1ccc(C[N+]2(C)C3CCC2CC(OC(=O)C(CO)c2ccccc2)C3)cc1 (stereo not shown) [butoxybenzylhyoscyamine bromide, N-(p-n-butoxybenzyl)-hyoscyaminium bromide]
change in organs (chronic toxicity) [1, 5]: no substantial change was observed in any organ | tests of blood and urine (chronic toxicity) [1, 5]: particular changes or disorders were not observed at all | changes observed (chronic toxicity) ([1]; rats, daily administered amount 2o mg/kg): inactive motion, mydriasis, control of increase of the body weight, storage of a small quantity of abdominal dropsy and formation of false membranes on the liver and spleen | tinnitus, Case 2 ([2]; person with the improvement of the hearing power): Tinnitus disappeared | hearing loss, Case 6 ([2]; person, 3o minutes after intravenous injection): the hearing loss was extremely reduced | hearing power after second 1 week oral administration, Case 4 ([2]; person, at termination of the second oral administration): further improved in the low-tone region | hearing power restored on the average, Case 4 ([2]; person, fixed perceptive deafness, one intravenous injection then 1 week oral, after 3 weeks): about 1o | hearing power restored at maximum, Case 4 ([2]; person, fixed perceptive deafness, one intravenous injection then 1 week oral, after 3 weeks, 2 KHz): 2o | change of hearing power, Case 3 ([2]; person, fixed sudden deafness of right ear, repeated intravenous injection): remarkably improved in the low-tone region | hearing loss after about 1 month, Case 2 ([2]; person, left ear, hearing loss about 5o dB before, one week oral administration with S.G.B.): 1o | hearing power after one week's administration, Case 2 ([2]; person, left ear, hearing loss about 5o dB before, oral administration while conducting S.G.B.): returned to the level equal to the level at the first examination | change of hearing power, Case 5 ([2]; person, perceptive deafness of left ear, oral, 3 weeks, 6 capsules per day): gradually recovered but was not returned to the normal level | change of hearing power, Case 1 ([2]; person, perceptive deafness, six capsules of 5 mg per day): the improvement was observed in the low-tone region after the administration | improvement of hearing power in many cases ([3]; 3o minutes after intravenous injection of 4 mg): up to 15 dB | highest improvement of hearing power ([3]; 3o minutes after intravenous injection of 4 mg, 1ooo Hz): 2o | improvement, low-tone region ([3]; 3o minutes after intravenous injection, 25o Hz, change exceeding 5 dB judged as improvement): 18% | improvement, medium-tone region ([3]; 3o minutes after intravenous injection, 1000 Hz, change exceeding 5 dB judged as improvement): 8% | improvement, high-tone region ([3]; 3o minutes after intravenous injection, 8000 Hz, change exceeding 5 dB judged as improvement): 12% | average improvement of the hearing power after the intravenous injection ([3]; average of low-, medium- and high-tone regions): about 13% | tinnitus: effective, number of patients [4]: 15 patients | tinnitus: effective, share of patients [4]: 36% | tinnitus: ineffective, number of patients [4]: 24 patients | tinnitus: ineffective, share of patients [4]: 59% | tinnitus: state worsened, number of patients [4]: 2 patients | tinnitus: state worsened, share of patients [4]: 5%
